Here are results for three compounds from patent US20040146987A1, “Rapidly degraded reporter fusion proteins” (Promega Corporation, priority 2002, published 2004).

Read-outs that look alike come from different tables or passages of the source. Some results are limits rather than exact numbers.

The subject of one assay is S. cerevisiae. The settings on record: yeast / S. cerevisiae, cited from earlier work.
A further assay has as its system E. coli. The following applies: cited from earlier work.
The next assay relates to protein synthesis. The assay can be described thus: inhibition of protein synthesis by cycloheximide. The following applies: 100 μg/ml. In kind it is cell-based. Here is the method: The half-life of the protein encoded by plasmid pUbiq(Y)Luc 19 was determined in mammalian cells and compared to the half-lives of wild-type luciferase as well as fusion proteins comprising firefly luciferase and a mutant form of the C-ODC (Luc-PEST10). This was done by evaluating the luminescence emitted by cells that were transiently transfected with either plasmid pUbiq(Y)Luc19 or pwtLuc1 or pLuc-PEST 10, respectively, and then, for different periods of time, were exposed to the protein synthesis inhibitor cycloheximide. […] The estimated half-life of Ubiq(Y)Luc in these cells is about 170-200 minutes, which is far longer than the half-lives reported by Varshavsky (1992) for P-galactosidase containing a tyrosine residue at the N-terminus both in E. coli and S. cerevisiae (2 and 10 minutes, respectively).

The subject of the next assay is COS-7 cells. The assay can be described thus: cycloheximide treatment of transiently transfected COS-7 cells, luminescence of accumulated luciferase. The following applies: cycloheximide 100 μg/ml. In kind it is cell-based, African green monkey. Here is the method:
For transfection, cells were grown to confluence in T25 flasks (Falkon, Becton Dickinson, Oxford). Transfection was conducted in 1 ml of serum-free RPMI-1640 that was mixed with 8 μg of plasmid DNA and 20 μl of Lipofectamine™2000 (GIBCO BRL). CHO cells were incubated in the transfection media for 30 minutes, HeLa cells for 1 hour, and COS-7 cells for 5 hours. Following incubation, cells were trypsinized with Trypsin-EDTA (GIBCO BRL) and collected by centrifugation. […]
To determine firefly luciferase activity, cells were lysed by freeze/thawing. Lysate from each well (100 μl) was transferred into corresponding wells of opaque 96 well plates (Falkon, Becton Dickinson, Oxford) containing 100 μl of Bright-Glo™ Luciferase Assay System (Promega) and luminescence intensity was determined using MLX Microtiter Plate Luminometer (Dynex). The activity of Renilla luciferase was measured by mixing 40 μl samples with 100 μl of assay reagent from the Renilla Luciferase Assay System (Promega).
The half-life of the protein encoded by plasmid pUbiq(Y)Luc 19 was determined in mammalian cells and compared to the half-lives of wild-type luciferase as well as fusion proteins comprising firefly luciferase and a mutant form of the C-ODC (Luc-PEST10). […]

For assay [1] the following is noted: literature; cited from earlier work.

In the case of β-galactosidase, the half-life with S. cerevisiae was 20 h; in the assay on S. cerevisiae (listed as wild-type P-galactosidase), more than 20 h; in the assay on E. coli, “more than 10 hours”.

For the compound `C[C@@H]1C[C@@H]([C@H](O)CC2CC(=O)NC(=O)C2)C(=O)[C@@H](C)C1` [cycloheximide], the “time to complete inhibition of protein synthesis” value in the assay on protein synthesis was not above 7.5 min.

As to “wild-type luciferase: wild-type firefly luciferase encoded by plasmid pwtLuc1”, the half-life entry in the assay with COS-7 cells was “about 7 hours”; in assay [1], “about 3.68 hours”.

Usually half-life stands for how long it takes for the measured level to halve.
